Measured values: patent publication US20230374015A1, “INHIBITORS OF FIBROBLAST GROWTH FACTOR RECEPTOR KINASES” (Kinnate Biopharma Inc., priority 2020, published 2023)

Target: FGFR2 (Homo sapiens, UniProt P21802)
Test: FGFR2 Kinase Protocol - Condition 2 (Reaction Biology HotSpot radiometric kinase assay, no preincubation)
Format: biochemical
Settings: poly[Glu:Tyr] (4:1) 0.2 mg/ml, ATP 100 microM, 2 hr room temperature
Outline: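 Ten-point, 3-fold compound dilutions were tested against wildtype or V564F FGFR2 with 100 µM ATP (33P-labelled), no preincubation, and 0.2 mg/ml poly[Glu:Tyr] (4:1) substrate. After 2 hr at room temperature, incorporation was read on P81 filter paper; IC50 fitted from activity remaining relative to vehicle.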

Sequence of FGFR2 (P21802 22-821): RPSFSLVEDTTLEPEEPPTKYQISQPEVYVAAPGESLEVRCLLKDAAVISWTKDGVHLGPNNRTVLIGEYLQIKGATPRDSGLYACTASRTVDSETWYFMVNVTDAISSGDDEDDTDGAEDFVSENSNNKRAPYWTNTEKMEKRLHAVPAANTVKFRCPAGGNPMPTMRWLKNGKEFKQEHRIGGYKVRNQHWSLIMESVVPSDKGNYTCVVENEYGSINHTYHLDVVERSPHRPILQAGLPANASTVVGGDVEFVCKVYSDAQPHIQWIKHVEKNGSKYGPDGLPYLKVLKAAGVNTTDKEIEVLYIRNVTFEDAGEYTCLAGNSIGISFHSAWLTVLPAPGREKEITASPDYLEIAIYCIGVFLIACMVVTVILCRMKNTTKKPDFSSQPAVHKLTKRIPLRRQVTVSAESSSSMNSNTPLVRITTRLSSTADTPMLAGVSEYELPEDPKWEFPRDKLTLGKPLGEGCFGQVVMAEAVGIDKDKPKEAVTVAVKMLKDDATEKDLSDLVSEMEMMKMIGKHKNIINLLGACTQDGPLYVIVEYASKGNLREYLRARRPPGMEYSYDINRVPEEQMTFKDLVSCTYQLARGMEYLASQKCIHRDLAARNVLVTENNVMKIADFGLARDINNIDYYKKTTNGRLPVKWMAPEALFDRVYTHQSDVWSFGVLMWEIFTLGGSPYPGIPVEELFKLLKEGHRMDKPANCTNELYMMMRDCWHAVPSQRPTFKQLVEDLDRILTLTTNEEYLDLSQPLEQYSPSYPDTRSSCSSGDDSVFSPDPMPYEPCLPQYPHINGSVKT

Row | IC50 [nM] | Structure (SMILES)
1 | ≤ 100 | C=CC(=O)N1C[C@@H](n2nc(C#Cc3cc4ncn(CC)c4cc3F)c3c(N)nccc32)C[C@@H]1C [Example 166, 1-((2S,4S)-4-(4-amino-3-((1-ethyl-6-fluoro-1H-benzo[d]imidazol-5-yl)ethynyl)-1H-pyrazolo[4,3-c]pyridin-1-yl)-2-methylpyrrolidin-1-yl)prop-2-en-1-one]
2 | ≤ 100 | C=CC(=O)N1C[C@@H](n2nc(C#Cc3c(Cl)cc4c(ncn4CC)c3F)c3c(N)ncnc32)C[C@@H]1COC [Example 116, 1-[(2R,4S)-4-[4-Amino-3-[2-(6-chloro-1-ethyl-4-fluoro-1,3-benzodiazol-5-yl)ethynyl]pyrazolo [3,4-d]pyrimidin-1-yl]-2-(methoxymethyl)pyrrolidin-1-yl]prop-2-en-1-one]
3 | ≤ 100 | C=CC(=O)N1C[C@@H](n2nc(C#Cc3cc4ncn(CC)c4cc3Cl)c3c(N)ncnc32)C[C@@H]1C [Example 168, 1-((2S,4S)-4-(4-amino-3-((1-ethyl-6-chloro-1H-benzo[d]imidazol-5-yl)ethynyl)-1H-pyrazolo[3,4-d]pyrimidin-1-yl)-2-methylpyrrolidin-1-yl)prop-2-en-1-one]
4 | ≤ 100 | C=CC(=O)N1C[C@@H](n2cc(C#Cc3c(F)cc4[nH]c(C)nc4c3F)c3c(N)ncnc32)C[C@@H]1COC [Example 107, 1-[(2R,4S)-4-[4-Amino-5-[2-(4,6-difluoro-2-methyl-1H-1,3-benzodiazol-5-yl)ethynyl]pyrrolo[2,3-d]pyrimidin-7-yl]-2-(methoxymethyl)pyrrolidin-1-yl]prop-2-en-1-one]
5 | ≤ 100 | C=CC(=O)N1C[C@@H](n2nc(C#Cc3cc4ncn(CC)c4cc3F)c3c(N)ncnc32)C[C@@H]1C(F)F [Example 170, 1-((2R,4S)-4-(4-amino-3-((1-ethyl-6-fluoro-1H-benzo[d]imidazol-5-yl)ethynyl)-1H-pyrazolo[3,4-d]pyrimidin-1-yl)-2-(difluoromethyl)pyrrolidin-1-yl)prop-2-en-1-one]
6 | ≤ 100 | C=CC(=O)N1C[C@@H](n2nc(C#Cc3cc4ncn(C5CC5)c4cc3Cl)c3c(N)ncnc32)C[C@@H]1CC#N [Example 187, 2-[(2R,4S)-4-{4-Amino-3-[2-(6-chloro-1-cyclopropyl-1,3-benzodiazol-5-yl)ethynyl]pyrazolo[3,4-d]pyrimidin-1-yl}-1-(prop-2-enoyl)pyrrolidin-2-yl]acetonitrile]
7 | ≤ 100 | C=CC(=O)N1CC[C@H](n2nc(C#Cc3cc4nc(C)n(C)c4cc3F)c3c(N)ncnc32)C1 [Example 192, 1-[(3S)-3-{4-Amino-3-[2-(6-fluoro-1,2-dimethyl-1,3-benzodiazol-5-yl)ethynyl]pyrazolo[3,4-d]pyrimidin-1-yl}pyrrolidin-1-yl]prop-2-en-1-one]
8 | ≤ 100 | C=CC(=O)N1C[C@@H](n2nc(C#Cc3cc4ncn(CC)c4c(F)c3Cl)c3c(N)nccc32)C[C@@H]1CC#N [Example 162, 2-[(2R,4S)-4-{4-Amino-3-[2-(6-chloro-1-ethyl-7-fluoro-1,3-benzodiazol-5-yl)ethynyl]pyrazolo[4,3-c]pyridin-1-yl}-1-(prop-2-enoyl)pyrrolidin-2-yl]acetonitrile]
9 | ≤ 100 | C=CC(=O)N1C[C@@H](n2nc(C#Cc3cc4ncn(C)c4cc3F)c3c(N)ncnc32)C[C@@H]1C [Example 151, 1-((2S,4S)-4-(4-amino-3-((1-methyl-6-fluoro-1H-benzo[d]imidazol-5-yl)ethynyl)-1H-pyrazolo[3,4-d]pyrimidin-1-yl)-2-methylpyrrolidin-1-yl)prop-2-en-1-one]
10 | ≤ 100 | C=CC(=O)N1C[C@@H](n2nc(C#Cc3cc4ncn(CC)c4cc3Cl)c3c(N)nccc32)C[C@@H]1C(F)F [Example 183, 1-((2R,4S)-4-(4-amino-3-((6-chloro-1-ethyl-1H-benzo[d]imidazol-5-yl)ethynyl)-1H-pyrazolo[4,3-c]pyridin-1-yl)-2-(difluoromethyl)pyrrolidin-1-yl)prop-2-en-1-one]
11 | ≤ 100 | C=CC(=O)N1C[C@@H](n2nc(C#Cc3cc4ncn(C)c4c(F)c3Cl)c3c(N)nccc32)C[C@@H]1CC#N [Example 174, 2-[(2R,4S)-4-{4-Amino-3-[2-(6-chloro-7-fluoro-1-methyl-1,3-benzodiazol-5-yl)ethynyl]pyrazolo[4,3-c]pyridin-1-yl}-1-(prop-2-enoyl)pyrrolidin-2-yl]acetonitrile]
12 | ≤ 100 | C=CC(=O)N1C[C@@H](n2cc(C#Cc3cc4ncn(C5CC5)c4cc3Cl)c3c(N)ncnc32)C[C@@H]1COC [Example 127, 1-[(2R,4S)-4-[4-Amino-5-[2-(6-chloro-1-cyclopropyl-1,3-benzodiazol-5-yl)ethynyl]pyrrolo[2,3-d]pyrimidin-7-yl]-2-(methoxymethyl)pyrrolidin-1-yl] prop-2-en-1-one]
13 | ≤ 100 | C=CC(=O)N1CC[C@H](n2nc(C#Cc3cc4ncn(CC)c4c(F)c3Cl)c3c(N)ncnc32)C1 [Example 144, 1-[(3S)-3-{4-Amino-3-[2-(6-chloro-1-ethyl-7-fluoro-1,3-benzodiazol-5-yl)ethynyl]pyrazolo[3,4-d]pyrimidin-1-yl}pyrrolidin-1-yl]prop-2-en-1-one]
14 | ≤ 100 | C=CC(=O)N1CC[C@H](n2nc(C#Cc3cc4ncn(CC)c4cc3F)c3c(N)ncnc32)C1 [Example 152, 1-[(3S)-3-{4-Amino-3-[2-(1-ethyl-6-fluoro-1,3-benzodiazol-5-yl)ethynyl]pyrazolo[3,4-d]pyrimidin-1-yl}pyrrolidin-1-yl]prop-2-en-1-one]

More lines, now with the values behind:

Row | Structure (SMILES) | IC50 [nM]
15 | C=CC(=O)N1C[C@@H](n2nc(C#Cc3c(F)cc4c(ncn4C4CC4)c3F)c3c(N)ncnc32)C[C@@H]1COC [Example 72, 1-[(2R,4S)-4-[4-Amino-3-[2-(1-cyclopropyl-4,6-difluoro-1,3-benzodiazol-5-yl)ethynyl]pyrazolo[3,4-d]pyrimidin-1-yl]-2-(methoxymethyl)pyrrolidin-1-yl]prop-2-en-1-one] | ≤ 100
16 | C=CC(=O)N1C[C@@H](n2nc(C#Cc3cc4ncn(CC)c4cc3F)c3c(N)ncnc32)C[C@@H]1COC(F)(F)F [Example 71, 1-[(2R,4S)-4-[4-amino-3-[2-(1-ethyl-6-fluoro-1,3-benzodiazol-5-yl)ethynyl]pyrazolo[3,4-d]pyrimidin-1-yl]-2-[(trifluoromethoxy)methyl]pyrrolidin-1-yl]prop-2-en-1-one] | ≤ 100
17 | C=CC(=O)N1C[C@@H](n2nc(C#Cc3cc4ncn(C)c4cc3Cl)c3c(N)nccc32)C[C@@H]1COC [Example 98, 1-[(2R,4S)-4-[4-Amino-3-[2-(6-chloro-1-methyl-1,3-benzodiazol-5-yl)ethynyl]pyrazolo[4,3-c]pyridin-1-yl]-2-(methoxymethyl)pyrrolidin-1-yl]prop-2-en-1-one] | ≤ 100
18 | C=CC(=O)N1C[C@@H](n2nc(C#Cc3c(F)cc4c(ncn4CC)c3F)c3c(N)ncnc32)C[C@@H]1COC [Example 85, 1-[(2R,4S)-4-[4-Amino-3-[2-(1-ethyl-4,6-difluoro-1,3-benzodiazol-5-yl)ethynyl]pyrazolo[3,4-d]pyrimidin-1-yl]-2-(methoxymethyl)pyrrolidin-1-yl]prop-2-en-1-one] | ≤ 100
19 | C=CC(=O)N1C[C@@H](n2nc(C#Cc3cc4ncn(C)c4cc3Cl)c3c(N)ncnc32)C[C@@H]1COC [Example 90, 1-[(2R,4S)-4-[4-Amino-3-[2-(6-chloro-1-methyl-1,3-benzodiazol-5-yl)ethynyl]pyrazolo[3,4-d]pyrimidin-1-yl]-2-(methoxymethyl)pyrrolidin-1-yl]prop-2-en-1-one] | ≤ 100
20 | C=CC(=O)N1C[C@@H](n2cc(C#Cc3ccc4c(c3)ncn4C)c3c(N)ncnc32)C[C@@H]1COC(F)(F)F [Example 66, 1-[(2R,4S)-4-[4-Amino-5-[2-(1-methyl-1,3-benzodiazol-5-yl)ethynyl]pyrrolo[2,3-d]pyrimidin-7-yl]-2-[(trifluoromethoxy)methyl]pyrrolidin-1-yl]prop-2-en-1-one] | ≤ 100
21 | C=CC(=O)N1C[C@@H](n2nc(C#Cc3c(F)cc4nn(CC)cc4c3F)c3c(N)ncnc32)C[C@@H]1COC [Example 49, 1-((2R,4S)-4-(4-amino-3-((2-ethyl-4,6-difluoro-2H-indazol-5-yl)ethynyl)-1H-pyrazolo[3,4-d]pyrimidin-1-yl)-2-(methoxymethyl)pyrrolidin-1-yl)prop-2-en-1-one] | 100 to 1000
22 | C=CC(=O)N1C[C@@H](n2nc(C#Cc3c(F)cc4nn(CC)cc4c3F)c3c(N)nccc32)C[C@@H]1COC [Example 51, 1-((2R,4S)-4-(4-amino-3-((2-ethyl-4,6-difluoro-2H-indazol-5-yl)ethynyl)-1H-pyrazolo[4,3-c]pyridin-1-yl)-2-(methoxymethyl)pyrrolidin-1-yl)prop-2-en-1-one] | 100 to 1000
23 | C=CC(=O)N1C[C@@H](n2nc(C#Cc3c(F)cc4c(ncn4C)c3F)c3c(N)nccc32)C[C@@H]1COC(F)(F)F [Example 60, 1-[(2R,4S)-4-[4-Amino-3-[2-(4,6-difluoro-1-methyl-1,3-benzodiazol-5-yl)ethynyl]pyrazolo[4,3-c]pyridin-1-yl]-2-[(trifluoromethoxy)methyl]pyrrolidin-1-yl]prop-2-en-1-one] | ≤ 100
24 | C=CC(=O)N1C[C@@H](n2nc(C#Cc3c(F)cc4c(cnn4C)c3F)c3c(N)nccc32)C[C@@H]1COC [Example 50, 1-((2R,4S)-4-(4-amino-3-((4,6-difluoro-1-methyl-1H-indazol-5-yl)ethynyl)-1H-pyrazolo[4,3-c]pyridin-1-yl)-2-(methoxymethyl)pyrrolidin-1-yl)prop-2-en-1-one] | ≤ 100
25 | C=CC(=O)N1C[C@@H](n2nc(C#Cc3c(F)cc4c(nc(C)n4CC)c3F)c3c(N)nccc32)C[C@@H]1COC [Example 33, 1-((2R,4S)-4-(4-amino-3-((1-ethyl-4,6-difluoro-2-methyl-1H-benzo[d]imidazol-5-yl)ethynyl)-1H-pyrazolo[4,3-c]pyridin-1-yl)-2-(methoxymethyl)pyrrolidin-1-yl)prop-2-en-1-one] | ≤ 100
